Where a SMILES comes first, the peptide text is derived from it. [ ]: non-standard residue; d: D form. The star is where a group is joined. Pro(3S-CH2tBu) = CC(C)(C)C[C@H]1CCN[C@@H]1C(=O)O; Quinaldoyl = O=C(c1ccc2ccccc2n1)*; X1 = c1ncc(CO*)s1
Target: T1, Caspase-3 (Homo sapiens, UniProt P42574)
T1 construct: the Caspase-2 and Caspase-3 are human recombinant active enzymes; purchased R&D Systems 707-C3-010/CF
T1 sequence (P42574 29-175 limits assumed): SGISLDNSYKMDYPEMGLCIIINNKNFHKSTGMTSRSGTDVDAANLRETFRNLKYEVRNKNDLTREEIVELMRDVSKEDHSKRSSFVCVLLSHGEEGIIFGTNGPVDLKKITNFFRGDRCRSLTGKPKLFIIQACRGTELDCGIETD
T1 sequence (P42574 176-277 limits assumed): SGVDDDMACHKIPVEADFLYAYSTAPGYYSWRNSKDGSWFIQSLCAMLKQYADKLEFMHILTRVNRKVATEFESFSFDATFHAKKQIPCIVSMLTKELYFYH
Test: Caspase-3 inhibition assay for reversible inhibitors (IC50, Ki)
Assay type: biochemical
Conditions: compared with Ac-VDVAD-CHO
Procedure: A preliminary step in the characterization of an inhibitor is the determination of its IC50. The IC50 is the necessary concentration of an inhibitor to decrease the enzyme activity by 50% of its maximum and uninhibited value.
The compound, at different concentrations, is incubated with the enzyme and buffer for 30 minutes at 37° C. to allow formation of the Enzyme-Inhibitor complex. The reaction is initiated by addition of buffer and substrate, and then activity is measured over 15 minutes for the determination of initial velocities.
The enzyme and the inhibitor (or DMSO as control) are incubated for 30 minutes at 37° C. The complex thus formed is diluted to 100th in the buffer/substrate mixture and then the activity measurement is started over 20 minutes. The initial rate obtained for the DMSO represents the 100% activity and will serve as a reference for the quantification of the residual activity of the enzyme in the presence of the inhibitor.
The reaction is started over 20 minutes upon addition of the buffer-substrate mixture.
Initial velocity values in RFU·min^−1 are reduced to Specific Activity (SA)values (pmol/min/μg enzyme) from an AMC standard range (1 RFU→0.02 pmol).
The evolution of the ratio 1/SA as a function of 1/[S] makes it possible to obtain the so-called double-inverse graph of Lineweaver-Burk from equation 4 (eq.4) where Vmaxapp and KMapp are the parameters which vary according to the type inhibition and as a function of inhibitor concentration. The intersection of the lines obtained for increasing inhibitor concentrations makes it possible to distinguish different types of inhibitors.
A secondary graph, obtained from the values of the slopes of the Lineweaver-Burk plot as a function of the concentration of inhibitor, makes it possible to obtain the value of the Ki. Its value is given by the abscissa point at the origin. […]

In the case of `CC(C)[C@H](NC(=O)c1ccc2ccccc2n1)C(=O)N[C@@H](CC(=O)O)C(=O)N[C@H](C(=O)N1CC[C@H](CC(C)(C)C)[C@H]1C(=O)N[C@@H](CC(=O)O)C(=O)OCc1cncs1)C(C)C` [Compound 3, (S)-4-(((S)-1-((2S,3S)-2-(((S)-3-carboxy-1-oxo-1-(thiazol-5 - ylmethoxy)propan-2-yl)carbamoyl)-3-neopenthylpyrrolidin-1-yl)-3-methyl-1-oxobutan-2-yl)amino)-3-((S)-3-methyl-2-(quinoline-2-carboxamido)butanamido)-4-oxobutanoic acid] (Quinaldoyl-VDV[Pro(3S-CH2tBu)]D-X1), the “potency on Caspase-3” value is reported as “considerably less potent on Caspase-3 than Ac-VDVAD-CHO”.

— US11407741B2, “Compounds and their use as selective inhibitors of caspase-2” (priority 2017, dated 2022)
